In PubChem BioAssay AID179 (DTP/NCI, 2004) one finds EC50, IC50 and outcome data, which are given here for 76 compounds.

pEC50, pIC50: −log10 of the molar value. Several values for one entry are separate records, joined by “and”; a condition that tells them apart may be missing. Equal entries are not always repeated. Activity calls are given as the source filed them.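 The calls were made as follows: active = compounds giving half or more protection of infected cells from virus-caused growth loss, again on retest; inactive = the rest.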

This assay concerns CEM cells HIV-1 protection, formazan growth assay. The assay can be described thus: NCI AIDS Antiviral Assay. Particulars: for pIC50: measured here: growth of uninfected CEM cells. The gist of the method: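 Category rules: moderately active means at least 50% protection on retest, and confirmed active means 100% protection reproducibly. The underlying data came from a formazan growth assay in HIV-1-infected CEM cells.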

Turning to `Cc1ccc(C(=O)C2=CN=C3C(=O)N(c4ccccc4)N(C)C3(C)C2=N)cc1` (centres undefined), the pEC50 is less than 3.70 and the pIC50 was less than 3.70.

Consider `O=C1NNC2(C(=O)N1)c1ccccc1-c1ccccc12`, for which the pEC50 is less than 3.70 and the pIC50 was 4.03.

For the compound `CC(Oc1ccc(OCC2CCCCC2)cc1)C(=O)OCC(=O)c1ccc(-c2ccccc2)cc1` (centres undefined), the pEC50 was less than 4.68 and the negative logarithm of the IC50 (pIC50) is less than 4.68.

For `C=C=C(Sc1ccccc1)C(C)(C)O`, the pEC50 was less than 3.60 and the pIC50 was 3.80.

For the compound `Oc1ccc2c(c1)OCC1c3cc4c(cc3OC21)OCO4` (centres undefined), the result was inactive.

`CC(NC(=O)C(N)CC(=O)O)NC(=O)N(C)C(C)(C)C` (centres undefined): the pEC50 is less than 3.70 and the pIC50 was less than 3.70.

Consider `Cc1ccc(S(=O)(=O)OC(c2ccc(Cl)cc2Cl)C2OC(=O)c3ccccc32)cc1` (centres undefined), for which the pEC50 is less than 4.39 and the negative-log IC50 (pIC50) was less than 4.39.

As for `CC(=O)Nc1ccc(-c2nnc(SCC(=O)Nc3cccc([N+](=O)[O-])c3)o2)cc1`, the pEC50 is less than 4.34 and the pIC50 was 5.11.

For `CC(=O)N=C1N(/C=C2\C(=O)Oc3ccccc3C2=O)C(=O)/C(=C/c2ccc(OC(C)=O)cc2)N1C`, the pEC50 was less than 3.70 and the pIC50 was 3.97.

Consider `Cc1cn([C@H]2[C@@H](CO)C[C@H]2O)c(=O)[nH]c1=O`, for which the pEC50 was less than 3.70 and the pIC50 was less than 3.70.

For the compound `Cc1[nH]nc(N)c1C#N`, the pEC50 is less than 3.70 and the pIC50 was 3.72.

As for `CCOC(=O)Cc1cc(=O)oc2c3c(cc(OC(C)C)c12)O[C@H](C)[C@@H](C)C3=O`, the pEC50 is less than 3.70 and the negative-log IC50 (pIC50) was 3.71.

In the case of `CCCCCCC1N(Cc2ccc(Cl)cc2)CCCN1Cc1ccc(Cl)cc1`, the pEC50 was less than 3.70 and the pIC50 was 4.92.

With `C=CCC(C(=O)Nc1cccc2[nH]cnc12)C(=O)OCC` (centres undefined), the pEC50 was less than 3.70 and the pIC50 was 3.71.

For the compound `CSc1nc2[nH]c(=O)c(C)nc2c(=O)[nH]1`, the pEC50 was less than 4.63 and the pIC50 is less than 4.63.

Turning to `CC(=O)Nc1ccc(-n2[nH]c(=O)n(C)c2=O)cc1`, the pEC50 was less than 4.00 and the pIC50 was less than 4.00.

`COC(=O)C(CCC1(C)OCCO1)C(C)=O` (centres undefined): the pEC50 is 4.50 and the pIC50 was 3.60.

Regarding `CN1C(=O)CC(=O)N(c2ccccc2)c2cc(Cl)ccc21`, the result was inactive.

As to `CSC(N)=Nc1cccc2ccccc12`, the pEC50 was less than 3.70 and the pIC50 is less than 3.70.

With `COC(=O)/C(=N\NC(N)=S)C(C#N)c1ccccc1` (centres undefined), the pEC50 is less than 3.89 and the pIC50 is less than 3.89.

Turning to `Cc1nc(C(N)=S)sc1C(=O)C/C(=N/N)C(=O)Nc1ccc(Cl)cc1`, the pEC50 was less than 3.62 and the pIC50 is less than 3.62.

Consider `Brc1cc2c(cc1Br)CN(c1ccccc1)C2`, for which the outcome was inactive.

For the compound `C(=C\c1ccnc2ccccc12)/c1cccnc1`, the pEC50 was less than 3.81 and the pIC50 was 4.37.

`COc1ccc2c(c1)C1(C=N2)CCN(C(C)=O)CC1`: the pEC50 was less than 3.86 and the negative logarithm of the IC50 (pIC50) was less than 3.86.

Regarding `O=c1ccn(/C=C\c2nc3ccccc3[nH]c2=O)c(=S)[nH]1`, the pEC50 is less than 3.70 and the pIC50 was less than 3.70.

With `O=[N+]([O-])c1ccc2nc(Nc3ccccc3)c(Nc3ccccc3)nc2c1`, the outcome was inactive.

Consider `COP(=O)(OC)/C(=C/c1cn(C(c2ccccc2)(c2ccccc2)c2ccccc2)cn1)NC=O`, for which the pEC50 is less than 3.70 and the pIC50 is less than 3.70.

Regarding `NCCNC(=O)CN(CC(=O)O)C1CCCCC1N(CC(=O)O)CC(=O)O` (centres undefined), the pEC50 was less than 3.70 and the pIC50 was less than 3.70.

Take `COc1ccccc1NC(=O)C1=C(C)NC(C)=C(C(=O)Nc2ccccc2OC)C1c1cccc2c1OCO2`: the result was inactive.

As for `COc1ccc(/C=C2/C(=O)N(C(=O)c3ccccc3O)N=C2C)cc1`, the pEC50 was less than 4.25 and the pIC50 was 7.30.

Regarding `COC(=O)[C@@]12CC[C@]1(C(=O)OC)C1C(C)=CC(=O)O[C@@]12C` (some centres undefined), the pEC50 was less than 3.70 and the negative logarithm of the IC50 (pIC50) is less than 3.70.

For the compound `Cc1ccsc1C(=O)C(CC(=O)c1cccs1)c1ccsc1` (centres undefined), the result was inactive.

`Cc1ccc(C)c(C[P+](c2ccccc2)(c2ccccc2)c2ccccc2)c1`: the pEC50 was less than 3.70 and the negative logarithm of the IC50 (pIC50) was 6.01.

For the compound `O=C1CC(c2c(-c3ccccc3)[nH]c3ccccc23)C(=O)N1c1ccccc1` (centres undefined), the result was inactive.

For the compound `O=C(c1ccccc1)N1CCC(Nc2nccs2)O1` (centres undefined), the pEC50 was less than 3.70 and the pIC50 was less than 3.70.

As for `c1ccc(-c2cc(Nc3ccc4c(c3)OCO4)c3cc(C4CCCCC4)ccc3n2)cc1`, the outcome was inactive.

Take `C=CC1CCC[N+]1(CC(=O)OCC)Cc1ccccc1` (centres undefined): the pEC50 was less than 3.70 and the pIC50 was less than 3.70.

`CC(=O)c1c2n(n(-c3ccccc3)c1=O)C(=O)c1nccnc1-2`: the pEC50 is less than 3.70 and the pIC50 was less than 3.70.

Turning to `CC(C)C(=O)NCC[C@@H](CNC(=O)OC(C)(C)C)NC(=O)OC(C)(C)C`, the pEC50 was less than 3.70 and the negative logarithm of the IC50 (pIC50) was less than 3.70.

Regarding `OC(CN1CCC(c2ccccc2)CC1)c1ccc(Br)cc1` (centres undefined), the pEC50 was less than 4.74 and the pIC50 was less than 4.74.

In turn, `O=[N+]([O-])c1cccc[c]1[Sb](=[O])([OH])[OH]` gave a pEC50 of less than 3.70 and a pIC50 of 5.13.

`COC(=O)c1ccc2c(c1)CC1(C2)Cc2ccccc2C1=O` (centres undefined): the pEC50 was less than 3.70 and the pIC50 was 4.55.

As for `CNCCC=C1c2ccccc2CCc2ccccc21`, the pEC50 was less than 3.70; the pIC50 was 4.54 and 4.48.

As to `CNC(=O)n1ncc2ccc([N+](=O)[O-])cc21`, the pEC50 is less than 3.70 and the pIC50 was 3.80.

`O=C1NC(c2ccc(O)cc2)C2CCC1C2` (centres undefined): the pEC50 was less than 2.94 and the negative-log IC50 (pIC50) is 3.02.

Take `O=C(c1cccc(C(=O)N(c2ccccc2)c2ccccc2)n1)N(c1ccccc1)c1ccccc1`: the pEC50 was less than 4.95 and the pIC50 is less than 4.95.

For `COc1c(Cl)cc(Cl)cc1S(=O)O`, the outcome was inactive.

As to `COc1ccc(N2C(=O)C3CC(c4ccc(C)cc4)c4c([nH]c5ccccc45)C3C2=O)cc1` (centres undefined), the pEC50 was less than 5.62 and the pIC50 is less than 5.62.

On to `C(=N\Nc1nnc(-c2nnc(N/N=C/c3ccccc3)o2)o1)/c1ccccc1`, for which the pEC50 was less than 3.70 and the pIC50 was less than 3.70.

For the compound `OCC(O)C1[O][Sb][O]C1C(O)CO` (centres undefined), the pEC50 was less than 3.70 and the pIC50 is less than 3.70.

On to `Cn1c(-c2cccs2)cc(-c2cccs2)c1-c1ccsc1`, for which the pEC50 is less than 4.70 and the negative-log IC50 (pIC50) is 4.95.

Consider `CC(=O)NNC(=S)N/C=C(\C#N)S(=O)(=O)c1ccc(C)cc1`, for which the outcome was inactive.

Consider `CC1=CP(=O)(c2ccccc2)CC1` (centres undefined), for which the pEC50 was 7.20 and the pIC50 was less than 3.70.

As to `CC1OC(=O)C2=C1C(=O)CC(C)(C)O2` (centres undefined), the pEC50 is less than 3.74 and the pIC50 is 3.77.

Take `Cc1ccc(-n2c(O)c3c(N)n[nH]c3c(C#N)c2=O)cc1`: the pEC50 was 3.81 and the pIC50 is less than 3.70.

Consider `COc1ccc(CCc2ccccc2CC(=O)O)cc1`, for which the pEC50 was less than 3.03 and the pIC50 was 3.23.

As to `COc1cc(-c2oc(C=Nc3ccccc3)c([N+](=O)[O-])c2-c2ccc(O)c(OC)c2)ccc1O`, the pEC50 was less than 3.70 and the pIC50 is 5.12.

Consider `S=C(N/N=C(/c1ccccc1)c1ccccn1)N1CCCCC1`, for which the pEC50 is less than 5.70 and the pIC50 was 7.41.

Take `COC(=O)C(C#CCCCCC#CC(NC(=O)OCc1ccccc1)(C(=O)OC)C(F)(F)F)(NC(=O)OCc1ccccc1)C(F)(F)F` (centres undefined): the pEC50 was less than 3.70 and the negative-log IC50 (pIC50) is 3.86.

Turning to `CN(C)C=C1C(=O)c2ccccc2C1=O`, the pEC50 is less than 4.45 and the pIC50 is less than 4.45.

Regarding `CNC(=O)CN(C)C(=O)CCC(=O)N(C)C`, the pEC50 is less than 3.70 and the pIC50 was less than 3.70.

Consider `COC(=O)/C(=N/NC(=O)C[N+](C)(C)C)C(C(=O)OC)C(=O)C(=O)Nc1ccc(F)cc1` (centres undefined), for which the pEC50 was less than 3.84 and the pIC50 was less than 3.84.

For the compound `C(/C=C\c1ccccc1)=Nc1ccccc1`, the pEC50 was less than 4.46 and the pIC50 was less than 4.46.

Turning to `Cn1c(=O)cc(/C=C/c2ccnc3ccccc23)c2ccccc21`, the pEC50 is less than 3.70 and the pIC50 was less than 3.70.

With `COc1nc(NC2OC(CO)C(O)C(O)C2O)cc(=O)n1C` (centres undefined), the outcome was inactive.

Regarding `Cc1ccc2nc(-c3ccc(N=NNc4ccc(-c5nc6ccc(C)c(S(=O)(=O)O)c6s5)cc4)cc3)sc2c1S(=O)(=O)O`, the pEC50 was 3.76 and the pIC50 was less than 3.70.

As for `O=C(Nc1ccc(/C=C\c2ccc(NC(=O)c3cc(S(=O)(=O)O)ccc3O)cc2S(=O)(=O)O)c(S(=O)(=O)O)c1)c1cc(S(=O)(=O)O)ccc1O`, the pEC50 is 4.15 and the pIC50 is less than 4.00.

`Cc1ccc(S(=O)(=O)c2ccc(O)cc2)cc1`: the pEC50 is less than 3.70 and the pIC50 is 3.89.

`O=C(O)c1ccc(Nc2cnc3ccc(C(F)(F)F)cc3n2)cc1`: the pEC50 was less than 3.70 and the pIC50 is 4.95.

`CCCCCCCCCCCC1=c2o[nH]c2=C(c2ccccn2)C(=O)C1=O`: the pEC50 was less than 4.71 and the negative logarithm of the IC50 (pIC50) is less than 4.71.

Take `COc1cc(OC)cc(C(=O)CC(=O)c2cc(OC)cc(OC)c2)c1`: the pEC50 was less than 4.68 and the pIC50 was 4.81.

As to `Oc1cc(Br)cc2cc(Br)cnc12`, the result was inactive.

As to `CN(C)C1CCC2(CC1)OCCO2`, the result was inactive.

In the case of `CCN(CC)C1C(=O)NC1C#Cc1ccccc1` (centres undefined), the pEC50 was less than 3.70 and the pIC50 is 4.07.

On to `CCc1cccc(CC)c1Nc1nc2c(s1)C(=O)c1ccccc1C2=O`, for which the pEC50 is less than 3.70 and the pIC50 was 4.48.

On to `CC(C)(C)c1cc[n+](C[n+]2ccc(C(C)(C)C)cc2)cc1`, for which the pEC50 was less than 3.70 and the pIC50 was less than 3.70.

One may read the pEC50 as the negative decadic logarithm of the EC50, by convention in mol/L. By pIC50 is commonly meant the negative decadic logarithm of the IC50, by convention in mol/L. A low value points to a large IC50.
